Experiment: recombinant barcode read abundance after kanamycin selection (control-corrected) (log10(CPM+1)); higher = more efficient recombination; sequences stand for … in AGTGCAGAGAAAATCGGCCAGTTTTCTCTGCCTGCAGTCCGCATGCCGT…AGATTTATGCAGCGGACTGCCTTTCTCCCAAAGTGATAAACCGGACAGTATCATGGACCGGTTTTCCCGGTAATCCGTATTTGCAAGGTTGGTTTCACT; site = the 11-nt target
Method in brief: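 Recombination efficiency draws on barcodes counted at recombinant junctions in a pooled E. coli screen of targets paired with IS621 bridge RNA target-binding loops. The counts were converted to counts per million, averaged and corrected against the chloramphenicol/ampicillin LB agar control, then reported as log10(CPM+1). Selection plates held chloramphenicol/ampicillin/kanamycin with 0.1 mM IPTG, with two replicates per condition.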
For “CTCTTCACTTGGGTTCTAACCTGTTGCCG (site CTCTTCACTCG)”, the “recombinant barcode read abundance (log10)” value was 0.998.
With “CTCTTCACTTGGGTTCTAACCTGTTGCCG (site CTCTTCGCTAG)” the “recombinant barcode read abundance (log10)” value was 0.0289.
With “CTGAGTTCTTGGGTTCTAACCTGTTGCCA (site CTGAGTCCTTG)” the “recombinant barcode read abundance (log10)” value was 0.269.
In the case of “CTGAGTTCTTGGGTTCTAACCTGTTGCCA (site CTGAGTTCTTG)”, the “recombinant barcode read abundance (log10)” value is reported as 0.0274.
In the case of “CTGATCCCTTGGGTTCTAACCTGTTGCGG (site CTGATCCCTCC)”, the “recombinant barcode read abundance (log10)” value is reported as 1.05.
In the case of “CTGATCCCTTGGGTTCTAACCTGTTGCGG (site CTGCTCCCTCC)”, the “recombinant barcode read abundance (log10)” value is reported as 0.
For “CTGATCCCTTGGGTTCTAACCTGTTGCGG (site CTGGTCCCTCC)”, the “recombinant barcode read abundance (log10)” value was 0.136.
For “CTGATCCCTTGGGTTCTAACCTGTTGCGG (site CTGTTCCCTCC)”, the “recombinant barcode read abundance (log10)” value was 0.0812.
For “CTGATTACTTGGGTTCTAACCTGTTGCCT (site CTGATAACTAG)”, the “recombinant barcode read abundance (log10)” value was 0.0337.
In the case of “CTGATTACTTGGGTTCTAACCTGTTGCCT (site CTGATCACTAG)”, the “recombinant barcode read abundance (log10)” value is reported as 0.0584.
With “CTGATTACTTGGGTTCTAACCTGTTGCCT (site CTGATGACTAG)” the “recombinant barcode read abundance (log10)” value was 0.0346.
In the case of “CTGATTACTTGGGTTCTAACCTGTTGCCT (site CTGATTACTAG)”, the “recombinant barcode read abundance (log10)” value is reported as 0.21.
In the case of “CTGCAAGCTTGGGTTCTAACCTGTTGCCT (site CTACAAGCTAG)”, the “recombinant barcode read abundance (log10)” value is reported as 1.29.
In the case of “CTGCAAGCTTGGGTTCTAACCTGTTGCCT (site CTCCAAGCTAG)”, the “recombinant barcode read abundance (log10)” value is reported as 0.218.
For “CTGCAAGCTTGGGTTCTAACCTGTTGCCT (site CTGCAAGCTAG)”, the “recombinant barcode read abundance (log10)” value was 0.995.
In the case of “CTGCAAGCTTGGGTTCTAACCTGTTGCCT (site CTTCAAGCTAG)”, the “recombinant barcode read abundance (log10)” value is reported as 0.854.
In the case of “CTGGACCCTTGGGTTCTAACCTGTTGCCG (site CTGGACCCTCG)”, the “recombinant barcode read abundance (log10)” value is reported as 1.91.
For “CTGGACCCTTGGGTTCTAACCTGTTGCCG (site GATTCGACTAC)”, the “recombinant barcode read abundance (log10)” value was 0.0386.
For “CTGGCAGCTTGGGTTCTAACCTGTTGCCT (site ACAAACCCTTA)”, the “recombinant barcode read abundance (log10)” value was 0.241.
For “CTGGCAGCTTGGGTTCTAACCTGTTGCCT (site CTGGCAGCTAG)”, the “recombinant barcode read abundance (log10)” value was 0.445.
In the case of “CTGGCGCCTTGGGTTCTAACCTGTTGCAT (site CTGGCGCCTAT)”, the “recombinant barcode read abundance (log10)” value is reported as 0.908.
For “CTGGCGCCTTGGGTTCTAACCTGTTGCAT (site TCTCGAGCTTC)”, the “recombinant barcode read abundance (log10)” value was 0.0909.
For “CTGGCTCCTTGGGTTCTAACCTGTTGCTT (site CTGGCTCCTAA)”, the “recombinant barcode read abundance (log10)” value was 0.227.
With “CTGGCTCCTTGGGTTCTAACCTGTTGCTT (site CTGGTTCCTAG)” the “recombinant barcode read abundance (log10)” value was 0.0218.
In the case of “CTGGGGTCTTGGGTTCTAACCTGTTGCTT (site CTGGGGTCTAA)”, the “recombinant barcode read abundance (log10)” value is reported as 2.43.
For “CTGGGGTCTTGGGTTCTAACCTGTTGCTT (site GACTAAGCTCC)”, the “recombinant barcode read abundance (log10)” value was 0.105.
With “CTGGTGCCTTGGGTTCTAACCTGTTGCCT (site CAGGTGCCTAG)” the “recombinant barcode read abundance (log10)” value was 0.808.
For “CTGGTGCCTTGGGTTCTAACCTGTTGCCT (site CCGGTGCCTAG)”, the “recombinant barcode read abundance (log10)” value was 0.116.
With “CTGGTGCCTTGGGTTCTAACCTGTTGCCT (site CGGGTGCCTAG)” the “recombinant barcode read abundance (log10)” value was 0.248.
For “CTGGTGCCTTGGGTTCTAACCTGTTGCCT (site CTGGTGCCTAG)”, the “recombinant barcode read abundance (log10)” value was 1.46.
In the case of “CTGTAGCCTTGGGTTCTAACCTGTTGCTG (site CTGTAGCCTCA)”, the “recombinant barcode read abundance (log10)” value is reported as 0.578.
For “CTGTAGCCTTGGGTTCTAACCTGTTGCTG (site CTGTAGGCTTA)”, the “recombinant barcode read abundance (log10)” value was 0.0376.
For “CTGTAGGCTTGGGTTCTAACCTGTTGCTA (site CTGTAGCCTCA)”, the “recombinant barcode read abundance (log10)” value was 0.136.
For “CTGTAGGCTTGGGTTCTAACCTGTTGCTA (site CTGTAGGCTTA)”, the “recombinant barcode read abundance (log10)” value was 0.716.
For “CTGTCGACTTGGGTTCTAACCTGTTGCCT (site CTATCCACTAG)”, the “recombinant barcode read abundance (log10)” value was 0.0154.
For “CTGTCGACTTGGGTTCTAACCTGTTGCCT (site CTGTCGACTAG)”, the “recombinant barcode read abundance (log10)” value was 0.286.
With “CTGTCTACTTGGGTTCTAACCTGTTGCCT (site CAGTCTACTAG)” the “recombinant barcode read abundance (log10)” value was 0.0294.
For “CTGTCTACTTGGGTTCTAACCTGTTGCCT (site CCGTCTACTAG)”, the “recombinant barcode read abundance (log10)” value was 0.197.
For “CTGTCTACTTGGGTTCTAACCTGTTGCCT (site CGGTCTACTAG)”, the “recombinant barcode read abundance (log10)” value was 0.134.
For “CTGTCTACTTGGGTTCTAACCTGTTGCCT (site CTGTCTACTAG)”, the “recombinant barcode read abundance (log10)” value was 0.0179.
For “CTTACTACTTGGGTTCTAACCTGTTGCCT (site ATCACTACTAG)”, the “recombinant barcode read abundance (log10)” value was 0.105.
For “CTTACTACTTGGGTTCTAACCTGTTGCCT (site CTTACTACTAG)”, the “recombinant barcode read abundance (log10)” value was 0.126.
For “CTTAGGACTTGGGTTCTAACCTGTTGCCT (site CTTAGGACTAG)”, the “recombinant barcode read abundance (log10)” value was 0.205.
For “CTTAGGACTTGGGTTCTAACCTGTTGCCT (site CTTAGGACTCG)”, the “recombinant barcode read abundance (log10)” value was 0.0406.
In the case of “CTTAGGACTTGGGTTCTAACCTGTTGCCT (site CTTAGGACTGG)”, the “recombinant barcode read abundance (log10)” value is reported as 0.136.
For “CTTAGGACTTGGGTTCTAACCTGTTGCCT (site CTTAGGACTTG)”, the “recombinant barcode read abundance (log10)” value was 0.0473.
With “CTTCAACCTTGGGTTCTAACCTGTTGCCT (site CTTCAACCTAG)” the “recombinant barcode read abundance (log10)” value was 1.75.
With “CTTCAACCTTGGGTTCTAACCTGTTGCCT (site CTTCACCCTAG)” the “recombinant barcode read abundance (log10)” value was 0.215.
With “CTTCAACCTTGGGTTCTAACCTGTTGCCT (site CTTCAGCCTAG)” the “recombinant barcode read abundance (log10)” value was 0.0746.
With “CTTCAACCTTGGGTTCTAACCTGTTGCCT (site CTTCATCCTAG)” the “recombinant barcode read abundance (log10)” value was 0.139.
For “CTTCACACTTGGGTTCTAACCTGTTGCAT (site CTTCACACTAT)”, the “recombinant barcode read abundance (log10)” value was 1.7.
For “CTTCACACTTGGGTTCTAACCTGTTGCAT (site CTTCACGCTAG)”, the “recombinant barcode read abundance (log10)” value was 0.316.
With “CTTCAGACTTGGGTTCTAACCTGTTGCTA (site CCTCAGACTTC)” the “recombinant barcode read abundance (log10)” value was 0.0983.
With “CTTCAGACTTGGGTTCTAACCTGTTGCTA (site CTTCAGACTTA)” the “recombinant barcode read abundance (log10)” value was 1.43.
With “CTTCATTCTTGGGTTCTAACCTGTTGCCT (site CTTCATTCTAG)” the “recombinant barcode read abundance (log10)” value was 0.102.
In the case of “CTTCATTCTTGGGTTCTAACCTGTTGCCT (site TGCTGGGCTCA)”, the “recombinant barcode read abundance (log10)” value is reported as 0.0303.
With “CTTCGAGCTTGGGTTCTAACCTGTTGCGG (site CTTCGAGCTCA)” the “recombinant barcode read abundance (log10)” value was 0.0538.
For “CTTCGAGCTTGGGTTCTAACCTGTTGCGG (site CTTCGAGCTCC)”, the “recombinant barcode read abundance (log10)” value was 0.98.
For “CTTCGAGCTTGGGTTCTAACCTGTTGCGG (site CTTCGAGCTCG)”, the “recombinant barcode read abundance (log10)” value was 0.027.
For “CTTCGAGCTTGGGTTCTAACCTGTTGCGG (site CTTCGAGCTCT)”, the “recombinant barcode read abundance (log10)” value was 0.658.
In the case of “CTTCGTACTTGGGTTCTAACCTGTTGCCA (site CTCCGTACTCG)”, the “recombinant barcode read abundance (log10)” value is reported as 0.126.
In the case of “CTTCGTACTTGGGTTCTAACCTGTTGCCA (site CTTCGTACTTG)”, the “recombinant barcode read abundance (log10)” value is reported as 0.213.
With “CTTCGTCCTTGGGTTCTAACCTGTTGCCT (site CTTCGTCCTAA)” the “recombinant barcode read abundance (log10)” value was 0.132.
With “CTTCGTCCTTGGGTTCTAACCTGTTGCCT (site CTTCGTCCTAC)” the “recombinant barcode read abundance (log10)” value was 0.0309.
In the case of “CTTCGTCCTTGGGTTCTAACCTGTTGCCT (site CTTCGTCCTAG)”, the “recombinant barcode read abundance (log10)” value is reported as 0.804.
In the case of “CTTCGTCCTTGGGTTCTAACCTGTTGCCT (site CTTCGTCCTAT)”, the “recombinant barcode read abundance (log10)” value is reported as 0.0799.
With “CTTCGTCCTTGGGTTCTAACCTGTTGCTT (site CTTCGTCCTAA)” the “recombinant barcode read abundance (log10)” value was 0.206.
With “CTTCGTCCTTGGGTTCTAACCTGTTGCTT (site CTTCGTCCTAC)” the “recombinant barcode read abundance (log10)” value was 0.68.
For “CTTCGTCCTTGGGTTCTAACCTGTTGCTT (site CTTCGTCCTAG)”, the “recombinant barcode read abundance (log10)” value was 0.0453.
For “CTTCGTCCTTGGGTTCTAACCTGTTGCTT (site CTTCGTCCTAT)”, the “recombinant barcode read abundance (log10)” value was 0.541.
In the case of “CTTGACACTTGGGTTCTAACCTGTTGCCT (site CTAGACACTAG)”, the “recombinant barcode read abundance (log10)” value is reported as 1.2.
For “CTTGACACTTGGGTTCTAACCTGTTGCCT (site CTCGACACTAG)”, the “recombinant barcode read abundance (log10)” value was 0.401.
In the case of “CTTGACACTTGGGTTCTAACCTGTTGCCT (site CTGGACACTAG)”, the “recombinant barcode read abundance (log10)” value is reported as 0.236.
With “CTTGACACTTGGGTTCTAACCTGTTGCCT (site CTTGACACTAG)” the “recombinant barcode read abundance (log10)” value was 2.07.
For “CTTGGAGCTTGGGTTCTAACCTGTTGCCT (site CTTGGAACTAG)”, the “recombinant barcode read abundance (log10)” value was 0.365.
In the case of “CTTGGAGCTTGGGTTCTAACCTGTTGCCT (site CTTGGACCTAG)”, the “recombinant barcode read abundance (log10)” value is reported as 0.247.
In the case of “CTTGGAGCTTGGGTTCTAACCTGTTGCCT (site CTTGGAGCTAG)”, the “recombinant barcode read abundance (log10)” value is reported as 1.61.
For “CTTGGAGCTTGGGTTCTAACCTGTTGCCT (site CTTGGATCTAG)”, the “recombinant barcode read abundance (log10)” value was 0.145.
In the case of “CTTGGGTCTTGGGTTCTAACCTGTTGCAT (site CTTGGGTCTAT)”, the “recombinant barcode read abundance (log10)” value is reported as 2.72.
With “CTTGGGTCTTGGGTTCTAACCTGTTGCAT (site TCCCATACTTC)” the “recombinant barcode read abundance (log10)” value was 0.0573.
For “CTTGGTTCTTGGGTTCTAACCTGTTGCTT (site CTGGGTCCTAA)”, the “recombinant barcode read abundance (log10)” value was 0.0304.
For “CTTGGTTCTTGGGTTCTAACCTGTTGCTT (site CTTGGTTCTAA)”, the “recombinant barcode read abundance (log10)” value was 0.809.
With “GAAAACACTTGGGTTCTAACCTGTTGCCT (site GAAAACACTAG)” the “recombinant barcode read abundance (log10)” value was 1.18.
For “GAAAACACTTGGGTTCTAACCTGTTGCCT (site GAAGAGACTAG)”, the “recombinant barcode read abundance (log10)” value was 0.0433.
For “GAAAAGGCTTGGGTTCTAACCTGTTGCCT (site GAAAAGGCTAG)”, the “recombinant barcode read abundance (log10)” value was 0.804.
In the case of “GAAAAGGCTTGGGTTCTAACCTGTTGCCT (site GAAACGGCTAG)”, the “recombinant barcode read abundance (log10)” value is reported as 0.105.

Reference: the supplement of paper PMC11208160
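Also: IS621 recombinase and bridge RNA in Escherichia coli cells.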
